The source of these data is ChEMBL document CHEMBL1201862, “PubChem BioAssay data set” (2004).

Holding throughout (experiment): NCI tumour cell line growth inhibition, 48 h
Assay [1] deals with 786-0.
Assay [2] has as its system A549.
Assay [3] relates to BT-549.
Assay [4] deals with CCRF-CEM.
The test system of assay [5] is DU-145.
Assay [6] concerns HCT-15.
For assay [7], the system named is IGROV-1.
For assay [8], the system named is MCF7.
Assay [9] concerns Malme-3M.
Assay [10] deals with RPMI-8226.
Assay [11] concerns RXF 393.
Assay [12] concerns SF-539.
Assay [13] deals with SK-MEL-28.
Assay [14] concerns SN12C.
Assay [15] concerns TK-10.
In assay [16] the test system is U-251.
Assay [17] has as its system UACC-62.
Assay [18] deals with COLO 205.
Assay [19] deals with SK-OV-3.
Assay [20] deals with T47D.

Where “and” joins values, the source holds several entries; their conditions need not be identical. Equal entries are not always repeated.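 Following 48 hours of exposure in 96-well plates, responses at five concentrations were used to interpolate endpoints linearly. Here, GI50 denotes the concentration required for 50% inhibition of growth.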 Calls of active or inactive are those of the source. Rule as the data show it: active = GI50 up to about 1.1 µM and inactive = higher.

On to `Cc1sc2nc(-c3cc([N+](=O)[O-])c(Cl)cc3Cl)c(/C=N/NC(=N)N)n2c1C`, for which the GI50 was 5.46 µM (inactive) in assay [1]; 22.9 µM (inactive) in [2]; 3.59 µM (inactive) in assay [3]; 4.31 µM (inactive) in assay [4]; 14.5 µM (inactive) in [5]; 3.61 µM in assay [6]. Besides, the GI50 was 2.34 µM (inactive) in assay [7]; 2.86 µM (inactive) in assay [8]; 13.8 µM (inactive) in [9]; 4.5 µM (inactive) in assay [10]; 5.09 µM (inactive) in [11]; 30.5 µM (inactive) in [12]. In addition, the GI50 is 2.4 µM (inactive) in assay [13]; 5.65 µM (inactive) in [14]; 13.9 µM (inactive) in assay [15]; 4.02 µM (inactive) in assay [16]; 14.7 µM (inactive) in assay [17].

As for `C=CCN(CC=C)Cn1c(=S)sc2ccccc21`, the GI50 in assay [1] is > 100 µM (inactive); in [2] it was > 100 µM (inactive); in assay [3], > 100 µM (inactive); in assay [4], 22.2 µM (inactive); in assay [18], 48.6 µM (inactive); in assay [5], > 100 µM (inactive). Also, the GI50 in assay [6] was 45 µM; in assay [7], 36.6 µM (inactive); in assay [8] it was > 100 µM (inactive); in [11], > 100 µM (inactive); in assay [12] it was 55.6 µM (inactive); in assay [13] it was 37.5 µM (inactive). For the same molecule, the GI50 is 91.4 µM (inactive) in assay [19]; > 100 µM (inactive) in assay [14]; > 100 µM (inactive) in [15]; > 100 µM (inactive) in [16]; 55.1 µM (inactive) in [17].

With `CCOc1ccc(NC(=O)/C(=N\N)C(C(=O)OC)c2nc3ccc(Cl)cc3nc2O)cc1` (centres undefined), the GI50 was > 100 µM (inactive) in [1]; > 100 µM (inactive) in assay [2]; > 100 µM (inactive) in assay [3]; > 100 µM (inactive) in [4]; more than 100 µM in assay [6]; 79.1 µM (inactive) in assay [7]. Moreover, the GI50 in assay [8], in [9], in [10], in [11], in assay [12] and in assay [13] was > 100 µM (inactive) each time. For the same molecule, the GI50 in [19], in [14], in [20], in assay [15], in [16] and in assay [17] was > 100 µM (inactive) throughout.

Turning to `COc1cc2oc(=O)ccc2cc1C1OC(=O)C2OC21C` (centres undefined), the GI50 is > 100 µM (inactive) in [1]; > 100 µM (inactive) in [2]; > 100 µM (inactive) in [4]; > 100 µM (inactive) in assay [18]; > 100 µM (inactive) in [5]; more than 100 µM in assay [6]. Further, the GI50 in assay [7], in assay [8], in assay [9], in assay [10], in [11] and in assay [12] was > 100 µM (inactive) each time. Besides, the GI50 in assay [13], in [19], in [14], in assay [20], in [15] and in assay [16] was > 100 µM (inactive) each time. Besides, the GI50 in assay [17] is > 100 µM (inactive).

Turning to `CC1OC(OC2C(OC(=O)[C@]34CCC(C)(C)C[C@H]3C3=CC[C@@H]5[C@@]6(C)CC[C@H](OC7OC(C(=O)O)C(O)C(O)C7O)C(C)(C)[C@@H]6CC[C@@]5(C)[C@]3(C)C[C@H]4O)OCC(O)C2O)C(O)C(O)C1OC1OCC(O)C(O)C1O` (some centres undefined), the GI50 in assay [1] was 14.8 µM (inactive) and 12.6 µM (inactive); in assay [3], 12.2 µM (inactive) and 13.5 µM (inactive); in [4] it was 17.5 µM (inactive) and 19.9 µM (inactive); in assay [18], 3.64 µM (inactive) and 2.32 µM (inactive); in [5], 15.3 µM (inactive) and 13.9 µM (inactive); in assay [6] it was 17.1 µM and 17.3 µM. The GI50 in assay [7] was 15.2 µM (inactive) and 13 µM (inactive); in assay [9] it was 14.2 µM (inactive) and 12 µM (inactive); in assay [10], 12.1 µM (inactive) and 16.8 µM (inactive); in assay [11], 15.7 µM (inactive) and 18.5 µM (inactive); in assay [19] it was 16.8 µM (inactive) and 18.9 µM (inactive); in assay [14], 2.38 µM (inactive) and 4.59 µM (inactive). For the same molecule, the GI50 in assay [20] is 22.2 µM (inactive) and 11.3 µM (inactive); in assay [16], 10.4 µM (inactive) and 15.3 µM (inactive); in assay [17], 18.5 µM (inactive) and 16 µM (inactive).

As to `Cc1cc(OC(=O)Nc2ccc(Cl)cc2)ccc1C(=S)Nc1ccccc1`, the GI50 in assay [1] is 80 µM (inactive); in [2], 50.2 µM (inactive); in assay [3], 91.8 µM (inactive); in assay [4] it was 20.7 µM (inactive); in assay [18] it was 40.6 µM (inactive); in [6] it was 68.1 µM. Besides, the GI50 in [7] is > 100 µM (inactive); in [8] it was 34.9 µM (inactive); in assay [9], 53 µM (inactive); in assay [10], > 100 µM (inactive); in assay [12] it was > 100 µM (inactive); in [13] it was 71.1 µM (inactive). In addition, the GI50 in assay [19] was > 100 µM (inactive); in [14], > 100 µM (inactive); in [20], 34.2 µM (inactive); in [16] it was > 100 µM (inactive); in [17], 3.85 µM (inactive).

Regarding `COc1cc2c(/C=C3/C(=O)Nc4ccc(O)cc43)c(Cl)n(Cc3ccccc3)c2cc1C`, the GI50 in [1] was 0.222 µM (active); in assay [2], 0.975 µM (active); in [4] it was 0.873 µM (active); in [18], 1.04 µM (active); in assay [5] it was 1.16 µM (inactive); in assay [6], 1.27 µM. Also, the GI50 in assay [7] is 0.682 µM (active); in assay [8], 1.18 µM (inactive); in [9], 0.24 µM (active); in assay [10] it was 0.687 µM (active); in assay [11] it was 0.352 µM (active); in assay [12], 0.392 µM (active). The GI50 in [13] was 3.56 µM (inactive); in assay [19], 0.817 µM (active); in assay [14] it was 6.17 µM (inactive); in assay [20] it was 4.93 µM (inactive); in assay [15] it was 3.36 µM (inactive); in assay [16], 0.69 µM (active). Besides, the GI50 in assay [17] is 2.37 µM (inactive).

For `CCc1n[nH]c(=O)n1CCCCCCCCCCCCn1c(CC)n[nH]c1=O`, the GI50 in assay [1] is 35.5 µM (inactive); in assay [2], 27.9 µM (inactive); in [3], 26.8 µM (inactive); in [4], 18.7 µM (inactive); in assay [18], 24.2 µM (inactive); in [6] it was 40.9 µM. Besides, the GI50 in [7] is 29.5 µM (inactive); in assay [8], 23.9 µM (inactive); in [9], 25.9 µM (inactive); in assay [10], 18.6 µM (inactive); in assay [11] it was 37 µM (inactive); in assay [12], 48.4 µM (inactive). Also, the GI50 in [19] is 62.4 µM (inactive); in assay [14], 59.8 µM (inactive); in assay [20], 18 µM (inactive); in assay [15], 33 µM (inactive); in [16], 22 µM (inactive); in assay [17], 18.3 µM (inactive).

As for `CC(C)(C)C1CC[C@H](O)[C@H]([C@H](O)CC2CC(=O)N(c3ccccc3)C(=O)C2)C1` (some centres undefined), the GI50 in assay [1] is > 100 µM (inactive); in assay [2], > 100 µM (inactive); in assay [3] it was > 100 µM (inactive); in assay [4] it was > 100 µM (inactive); in assay [5], > 100 µM (inactive); in assay [6], more than 100 µM. Also, the GI50 in [7], in assay [8], in [9], in [11], in assay [12] and in assay [13] was > 100 µM (inactive) in each case. In addition, the GI50 in assay [14] was > 100 µM (inactive); in [15], > 100 µM (inactive); in [16], > 100 µM (inactive); in assay [17], 31.5 µM (inactive).

Take `CCCSc1ccc2[nH]c(/N=C/c3ccccc3)cc2c1`: the GI50 in assay [1] was 19.1 µM (inactive); in assay [3] it was 33.7 µM (inactive); in [4] it was 13.5 µM (inactive); in assay [18] it was 19.3 µM (inactive); in assay [5], 30.5 µM (inactive); in [6], 29 µM. Besides, the GI50 in [7] was 31.8 µM (inactive); in assay [9] it was 16.6 µM (inactive); in [10] it was 14.8 µM (inactive); in [11] it was 16.4 µM (inactive); in assay [12] it was 20.5 µM (inactive); in assay [13] it was 23.7 µM (inactive). The GI50 was 27.3 µM (inactive) in [14], 48 µM (inactive) in [20] and 17.4 µM (inactive) in [17].

`CC[C@H]1C=CCC[C@@]2(C[C@@H]3CC[C@H]4[C@@H](C(=O)OCCCCCCCCCCCCCCCC(=O)N(CCCN)C[C@@H](O)CCN)[C@@]5(CCC[C@@H](C)O5)NC(=[N+]34)N2)O1`: the GI50 in assay [1] is 1.88 µM (inactive); in assay [2], 1.77 µM (inactive); in [3] it was 2.01 µM (inactive); in assay [18], 1.83 µM (inactive); in assay [5], 1.8 µM (inactive); in assay [6], more than 10 µM. Also, the GI50 in assay [7] is 1.74 µM (inactive); in [8], 1.62 µM (inactive); in [9] it was 1.67 µM (inactive); in assay [10] it was 1.07 µM (active); in [11], 1.8 µM (inactive); in [12], 1.4 µM (inactive). Besides, the GI50 was 1.36 µM (inactive) in assay [13]; 1.8 µM (inactive) in [19]; 2.96 µM (inactive) in assay [14]; 1.58 µM (inactive) in assay [15]; 1.64 µM (inactive) in assay [16]; 1.78 µM (inactive) in [17].
